In patent US12398123B2, “Chemical inhibition of the E3 ligase subunit FBXO7 confers neuroprotection and anti-inflammatory activity by stabilizing mitochondria” (University of Pittsburgh—Of the Commonwealth System of …, priority 2017, dated 2025):
Peptide text beside a SMILES is read from it. * marks the point of attachment. Cbz = O=C(OCc1ccccc1)*

Tests used:
H9C2 cells [1] = assay: tBHP-induced mitochondrial injury in H9C2 cells, MitoTracker Red flow cytometry; conditions: 100 ng/ml 16 h, tBHP 100 μM 45 min
[2] = system: P. aeruginosa (PA103) lung inflammatory injury; assay: experimental pneumonia: mice given PA103 i.t.
H9C2 cells [3] = assay: CCCP triggered mitochondrial injury in H9C2 cells, Mitosense Red and Annexin V flow cytometry; type: cell-based, rat; conditions: 100 ng/ml 16 h, CCCP 20 μM 2 h; CCCP alone 17.2%
[4] = system: TNF release from human PBMCs; assay: LPS stimulated TNF secretion from PBMCs (ELISA); type: cell-based; conditions: 2 h pretreatment, then LPS 10 ng/ml 4 h
SH-SY5Y cells = assay: MPP+ elicited injury in SH-SY5Y cells, AlamarBlue cell viability; conditions: 5 μg/ml with MPP+ for 24 h, relative to BC1465
Pink1 [5] = assay: Pink1 protein stability (CHX chase) in BEAS-2B cells; conditions: 1 μg/ml for 16 h, then CHX 40 μg/ml
primary fibroblasts = assay: 6-OHDA model in primary fibroblasts; conditions: 6-OHDA 300 M (unit prefix printed as image), 19 h
H9C2 cells [6] = assay: mitochondrial membrane potential after CCCP in H9C2 cells, JC1 staining, confocal microscopy; conditions: 100 ng/ml 16 h, CCCP 20 μM 2 h
primary cortical neurons = assay: morphological injury of GFP-transfected primary cortical neurons challenged with MPP+; conditions: MPP+ 24 h
PINK1 [7] = assay: human lung slices challenged with LPS: Pink1 immunoblotting; conditions: compound 4 h, then LPS 100 ng/ml 4 h
Pink1 [8] = assay: target validation: Pink1 levels in BEAS-2B cells with control or Fbxo7 siRNA; conditions: Fbxo7 siRNA 3 days, compound 18 h
PINK1 [9] = type: cell-based, human; conditions: SHSY5Y PINK1-Flag, compound 3 h, cycloheximide 10 μg/ml 1 h
Excerpt: FIGS. 7A-7H. […] FIG. 7A. […] FIG. 7B. […] FIG. 7C. […] FIG. 7D-7E. […] Scale bar=100 μm.

[10] = intracerebral ventricular infusion in mice for 2 weeks (tolerability); type: in vivo, mouse; conditions: 10 ug/ml via intracerebral ventricular infusion for 2 weeks
Protocol: BC 1464 was administered in artificial CSF with DMSO by intracerebroventricular pump to C5bl/6 mice.

[11] = system: late neural progenitor cells differentiated from a human iPSC line; assay: DMSO-induced cell death in late neural progenitor cells from an SNCA triplication iPSC line; type: cell-based; conditions: 5 ng/mL for 1 wk
Protocol: Methods. Late neural progenitor cells were derived from an iPSC line from a PD patient with SNCA gene triplication, as previously described (D'Aiuto et al. Organogenesis 10(4): 365-377). […] Images were acquired with a 40× oil objective (1.30 NA) on an Olympus IX71 microscope using Olympus CellSens V1.17 with a DP80 camera. Cell death was assessed by counting condensed/fragmented nuclei. Results.

[12] = system: cytokine release from human lung explants; assay: human lung slices challenged with LPS: TNFα ELISA of supernatant; conditions: compound 4 h, then LPS 100 ng/ml 4 h
Pink1 [13] = assay: Pink1 protein decay in BEAS-2B cells with proteasomal or lysosomal inhibitors and CHX; type: cell-based; conditions: 30 min pretreatment (MG132 20 μM, leupeptin 100 μM), then CHX 40 μg/ml
Protocol: FIGS. 1A-1E. Fbxo7 mediates Pink1 polyubiquitylation and proteasomal degradation. FIG. 1A. BEAS-2B cells were pretreated with MG132 (20 μM), leupeptin (100 μM), or diluent (control, CON) for 30 min, and then were treated with CHX (40 μg/ml) to assay protein decay. The cell lysates were obtained at the indicated time points for immunoblotting. FIG. 1B. BEAS-2B cells were nucleofected with V5-tagged Fbxo7 plasmid at indicated amounts and incubated for 48 h, the whole cell lysates were subjected to immunoblotting. FIG. 1C. BEAS-2B cells were nucleofected with 4 individual shRNAs respectively and analyzed by immunoblotting. FIG. 1D. BEAS-2B cells were nucleofected with control shRNA or Fbxo7 shRNA for 72 h, and then treated with CHX (40 μg/ml). The cells were collected at indicated time points for half-life analysis. FIG. 1E. In vitro ubiquitylation assays were performed with synthesized Pink1 combined with indicated recombinant proteins.
Cell Culture and Transfection.
Pink1 undergoes rapid proteolysis in cells, and the cleaved Pink1 fragment may be degraded through the N-end rule pathway. To test if full length Pink1 is subjected to ubiquitin mediated degradation, we evaluated the ability of proteasomal or lysosomal inhibitors to regulate stability of the kinase. […]

[14] = 5 mg/kg intraperitoneal, 18 h, compared to vehicle control or BC1465

With O=C(CCCn1c(SCC(=O)NCC2CCCO2)nc2ccccc2c1=O)NCc1ccccc1 (stereo not drawn) [BC1464] the “protection from tBHP-induced mitochondrial injury” value (H9C2 cells [1]) was “largely protected mitochondria from oxidative stress”, the “mitochondrial injury (damaged mitochondria) after tBHP” value (H9C2 cells [1]; tBHP with vehicle 45.3%, untreated 4.1%) was 26.1% and the lavage bacteria counts ([2]; 5 mg/kg intraperitoneal at time of PA103, 18 h) was “no effect”. For the same molecule, the lavage cell numbers [2, 14] was “significantly decreased”, the lavage cytokine levels [2, 14] was “significantly decreased” and the lavage protein [2, 14] was “significantly decreased”. The “CCCP damaged (depolarized) mitochondria” value (H9C2 cells [3]) was 10.5%, the “reduction of LPS stimulated release of TNF” value ([4]; 1 ng/ml) was about 37% and the “LPS stimulated release of TNF” value ([4]; 10 ng/ml) was “potently blocked”. The “MPP+ elicited injury (cell viability)” value (SH-SY5Y cells) was “significantly decreased MPP+ elicited injury”, the “Pink1 protein stability upon inhibiting protein synthesis” value (Pink1 [5]) was “largely stabilized Pink1” and the “protection in the 6-OHDA model” value (primary fibroblasts) was “conferred protection”. The “mitochondrial membrane potential disrupted by CCCP (JC1)” value (H9C2 cells [6]) was “maintains the mitochondrial membrane potential”, the “retraction and simplification of the dendritic arbor” value (primary cortical neurons; 5 μg/ml, versus BC1465) was “protect against retraction and simplification of the dendritic arbor” and the “cell death in primary cortical neurons” value (primary cortical neurons) was “reduce cell death”. The “Pink1 protein levels in human lung explants” value (PINK1 [7]) was “selectively increase Pink1 protein levels”, the “Pink1 levels after Fbxo7 siRNA treatment” value (Pink1 [8]) was “not observed” and the “PINK1 expression in the presence of cycloheximide” value (PINK1 [9]) was “stabilizes PINK1 expression”. For the same molecule, the toxicity / survival [10] was “no overt toxicity”, the “toxicity elicited by DMSO (condensed/fragmented nuclei)” value [11] was “prevented toxicity elicited by DMSO” and the “cytokine release in response to endotoxin” value [12] was “inhibit cytokine release”.
With CC(C)C[C@@H](C=O)NC(=O)[C@H](CC(C)C)NC(=O)[C@H](CC(C)C)NC(=O)OCc1ccccc1 [MG132] (Cbz-Leu-Leu-Leu-aldehyde) the “Pink1 accumulation / turnover” value (Pink1 [13]) was “accumulated not only the Pink1 fragment, but also full length Pink1”.
For CC(=O)N[C@@H](CC(C)C)C(=O)N[C@@H](CC(C)C)C(=O)N[C@H](C=O)CCCNC(=N)N [leupeptin], the “Pink1 accumulation / turnover” value (Pink1 [13]) was “little impact on basal Pink1 turnover”.
With N#Cc1ccccc1Cn1c(=O)n(CCCC(=O)NCc2ccc3c(c2)OCO3)c(=O)c2ccccc21 [BC1465, reference compound] the “Pink1 protein stability upon inhibiting protein synthesis” value (Pink1 [5]) was “no effect on Pink1 protein stability”.
